Source: US20230241000A1, “GSK3 INHIBITOR-LOADED NANO FORMULATIONS AS A CANCER IMMUNOTHERAPEUTIC” (The Regents of the University of California, priority 2020, published 2023)
“Also recorded” adds a separate entry of the source.

Tests used:
[1] = Maximum tolerated dose study of free AZD1080; type: in vivo; details: one-time tail vein injection, 5 to 25.3 mg/kg, weights recorded 14 days; listed as free AZD1080
Experimental: Dotted lines represent thresholds for toxicity (−15%) and weight loss requiring euthanasia (20%). Body weight changes are relative to individual mouse initial weights. N=4 mice per group, error bars are SEM.
In order to establish a safe working concentration for murine experiments on AZD1080, we used a previously established dose of 5 mg/kg for the treatment of an Alzheimer's-like disease process in rats (29) for planning of a maximum tolerated dose assessment (FIG. 14). […] This prompted us to continue the use of the established dose of 5 mg/kg, for a total of three injections in our animal studies.
The maximum tolerated dose of AZD1080 was determined using a protocol from the National Cancer Institute (72). C57BL/6 mice were injected with AZD1080 solutions via tail vein (100 μL) and weights were recorded daily for 14 days. AZD1080 was solubilized in 30% PEG400, 0.5% Tween-80, 5% polyethylene, and 64.5% 1×PBS. The injected amounts of AZD1080 were 5, 7.5, 11.25, 16.87, or 25.31 mg/kg per mouse, n=4 mice per group.

[2] = humans; literature (15); cited from earlier work
Pdcd1 expression = assay: RT-qPCR of Pdcd1 in anti-CD3 activated primary murine T-cells; type: cell-based, C57BL/6 mouse; details: 10 μM, 72 hours, normalized against Gapdh
Experimental: (§1) This is compatible with the translational expression of T-bet, a transcription factor that interferes in PD-1 expression (FIG. 1, panel B).
(§2) Wells of a 96-well tissue culture plate were coated with anti-mouse CD3 antibody (Ultra-LEAF, Biolegend). 7.5 μL of 1 mg/mL antibody solution was diluted in 1 mL of 1×PBS, before 50 μL of the dilution was added to each plate well for 2 hours at 37° C. The wells were then thoroughly washed 3× with 1×PBS.
(§3) T-cells were extracted from C57BL/6 mouse spleens, using a standard procedure with minor modifications (71). Two mouse spleens were mechanically disrupted and the released cells were passed through a 70 μm filter. Red blood cells were lysed using RBC lysis buffer (eBioscience) at 4° C. for 5 minutes. 10 mL of 1×PBS was added to stop the lysis process, following which cells were pelleted at 300×g for 5 minutes. […]
(§4) Cells were collected and RNA was extracted using Direct-zol RNA MiniPrep Plus kits (Zymo), as per the manufacturer's instructions. Extracted RNA was converted into cDNA using SuperScript III First-Strand Synthesis System kits (Invitrogen). cDNA from treated T-cells was analyzed by RT-PCR using a LightCycler 480 instrument (Roche) and the LightCycler 480 SYBR Green I Master kit (Roche), per manufacturer's instructions. cDNA was analyzed using forward and reverse primers for Pdcd1, Tbx21, and Gapdh as a control, as described previously (10, 14). […]

Tbx21 expression = assay: RT-qPCR of Tbx21 in anti-CD3 activated primary murine T-cells; type: cell-based, C57BL/6 mouse; details: 10 μM, 72 hours, normalized against Gapdh
Experimental: as §1, §2, §3, §4

[3] = Remote loading of GSK3 inhibitors into silicasomes: encapsulation efficiency and loading capacity; type: physicochemical
Experimental: The overall scheme for the synthesis of silicasome carriers to deliver GSK3 inhibitors is outlined in FIG. 3. Briefly, a large batch (i.e. 120 g) synthesis of bare particles was carried out as previously, yielding ˜70 nm MSNPs (FIG. 3, panel A) (22). […] 20 mg soaked-in MSNPs were then used together with an ethanol suspended lipid solution, comprised of a mixture of 60 mg DSPC:Cholesterol:PE-PEG2000 (molar ratio of 6:4:0.3), for coating with a lipid bilayer by a flow through sonication procedure (FIG. 3, panel B). Following the removal of the non-encapsulated trapping agent, AZD2858, AZD1080, LY2090314, and 1-Azakenpaullone were dissolved in 0.9% saline and incubated with the silicasome carrier to assess the loading capacity in response to different feed weight percentages (FIG. 11).
Four GSK3 inhibitor-laden silicasome formulations were analyzed to assess encapsulation efficiency and loading capacity. 100 μL of the silicasomes suspension at 10 mg/mL in 0.9% NaCl (1 mg silicasomes) was added to AZD1080, AZD2858, LY2090314, and 1-azakenpaullone solutions, which were prepared by adding 50, 100 or 200 μg of each inhibitor to 900 μL water. These drug mass quantities provided feed weight percentages of 5, 10, and 20%, in comparison to the silicasome mass. Following execution of the remote loading procedure as detailed above, the crude solutions were used to assess absorbance in a glass bottom 96-well plate (Total Drug Absorbance). Silicasomes were centrifuged at 21,000×g for 15 minutes to pellet the particles. After removal of the supernatant, the silicasomes were re-suspended in aa fresh 0.9% NaCl solution. This was repeated three times to remove any unloaded inhibitor. The silicasome solution was then sampled and absorbance was measured to determine Loaded Drug Absorbance. Concentration-matched unloaded ‘blank’ silicasomes also had absorbance measured (Silicasome Blank Absorbance). Encapsulation efficiency was calculated by the following formula: […]
All measurements were taken using a SpectraMax M5 plate reader (Molecular Devices). All solutions were diluted 1/10 in 0.9% NaCl solution prior to absorbance reads. The absorbances used for each compound were: 418 nm for AZD1080, 383 nm for AZD2858, 213 nm for LY2090314, and 334 nm for 1-azakenpaullone.

N#Cc1ccc2[nH]c(O)c(-c3ccc(CN4CCOCC4)cn3)c2c1 [AZD1080]
tolerability on dose escalation (weight loss, behavior, mortality, adverse events) [1]: devoid of significant weight loss, abnormal behavior or posture, mortality or other adverse events | toxicity leading to discontinuation in phase I clinical trial [2]: nephrotoxicity | reduction in Pdcd1 mRNA expression (Pdcd1 expression): ~6 fold | Tbx21 mRNA expression (Tbx21 expression): increased | Encapsulation Efficiency ([3]; AZD1080 remote loaded in silicasome, feed weight of 5%, ± SD, 3 samples): 62.5% | Loading Capacity ([3]; AZD1080 remote loaded in silicasome, ± SD, 3 samples): 8.1 w/w % | solubility during remote loading (in words) ([3]; dissolved in 0.9% saline, incubated with silicasome carrier, feed weight %): good aqueous solubility | encapsulation efficiency in silicasomes (in words) ([3]; remote loading at 5, 10 or 20 feed weight %): highest encapsulation efficiency; also recorded: moderate efficiency
